Several values for one entry are separate records, joined by “and”; a condition that tells them apart may be missing. Identical values can stand only once. Like-named read-outs stand apart in the source and are kept apart here.
Key:
[1] = tested on: Pseudomonas aeruginosa PA01
[2] = tested on: Pseudomonas aeruginosa PA14
[3] = tested on: Escherichia coli MG1655
[4] = tested on: Escherichia coli AR350
[5] = tested on: Escherichia coli ATCC 25922
[6] = tested on: Escherichia coli K-12 MG1655
[7] = tested on: Salmonella enterica typhimurium LT2A TCC 19585
[8] = tested on: Salmonella enterica Enteritidis AR496
[9] = tested on: Acinetobacter baumannii ATCC 19606
[10] = tested on: Klebsiella pneumoniae AR347
[11] = tested on: Proteus mirabilis H14320
[12] = tested on: Proteus mirabilis BB2000
[13] = tested on: Yersinia pseudotuberculosis ATCC 6904
[14] = tested on: Photorhabdus australis DSM 17609
[15] = tested on: Burkholderia cenocepacia ATCC BAA-245
[16] = tested on: Enterobacter cloaceae ATCC 13047
[17] = tested on: Moraxella catarrhalis ATCC 25248
[18] = tested on: Shigella sonnei ATCC 25931
[19] = tested on: Vibrio vulnificus KLE δ-1125
[20] = tested on: Veillonella ratti KLE 2365
[21] = tested on: Bacteroides fragilis KLE 2244
[22] = tested on: Bacteroides stercoris KLE 2537
[23] = tested on: Staphylococcus aureus HG003
[24] = tested on: Bacillus subtilis 168
[25] = tested on: Limosilactobaccilus reuteri LTH5448
[26] = tested on: Clostridium bifermentans KLE 2329

Q: What does the source list for CC(C)C(NC(=O)C1NC(=O)C(CO)NC(=O)C(CC(N)=O)NC(=O)C(N)Cc2c[nH]c3cc(ccc23)C1C(N)=O)C(=O)NC1Cc2cn(cn2)C(c2ccc(O)cc2)C(C(=O)NC(CCCNC(=N)N)C(=O)NC(Cc2ccccc2)C(=O)O)NC(=O)C(CO)NC1=O (stereo not shown) [Formula (I)]?
A: MIC ([1]; Pseudomonas aeruginosa PA01): 8 mg/L; MIC ([2]; Pseudomonas aeruginosa PA14): 16 mg/L; MIC ([3]; Escherichia coli MG1655): 16 mg/L; MIC [4]: 8 mg/L; MIC [5]: 8 mg/L; MIC [6]: 16 mg/L; MIC [7]: 8 mg/L; MIC [8]: 8 mg/L; MIC ([9]; Acinetobacter baumannii ATCC 19606): 16 mg/L; MIC [10]: 64 mg/L; MIC ([11]; Proteus mirabilis H14320): 64 mg/L; MIC ([12]; Proteus mirabilis BB2000): 125 mg/L; MIC ([13]; ATCC 6904): 8 mg/L; MIC ([14]; Photorhabdus australis DSM 17609 (producer strain; listed twice)): 250 mg/L and >128 mg/L; MIC [15]: >1000 mg/L; MIC [16]: 16 mg/L; MIC [17]: 2 mg/L; MIC [18]: 4 mg/L; MIC [19]: 8 mg/L; MIC [20]: 16 mg/L; MIC [21]: >128 mg/L; MIC [22]: >128 mg/L; MIC ([23]; Staphylococcus aureus HG003): >1000 mg/L; MIC ([24]; Bacillus subtilis 168): >1000 mg/L; MIC [25]: >128 mg/L; MIC [26]: >128 mg/L

Q: Which MIC [1] does the source give for CC(C)C(NC(=O)C1NC(=O)C(CO)NC(=O)C(CC(N)=O)NC(=O)C(NC(=O)C(CO)NC(=O)C2CCCN2)Cc2c[nH]c3cc(ccc23)C1C(N)=O)C(=O)NC1Cc2cn(cn2)C(c2ccc(O)cc2)C(C(=O)NC(CCCNC(=N)N)C(=O)NC(Cc2ccccc2)C(=O)O)NC(=O)C(CO)NC1=O (stereo not shown) [Formula (III)] here?
A: The MIC was 16 mg/L.

Q: What about the MIC ([2]; PA14) of the same compound?
A: The MIC was 32 mg/L.

Q: What about the MIC ([3]; MG1655) of the same compound?
A: The MIC was 8 mg/L.

Q: What about the MIC [4] of the same compound?
A: Its MIC is 16 mg/L.

Q: What about the MIC [8] of the same compound?
A: Its MIC is 32 mg/L.

Q: And the MIC ([9]; ATCC 19606)?
A: Its MIC is 8 mg/L.

Q: And the MIC [10]?
A: Its MIC is 125 mg/L.

Q: And the MIC ([11]; H14320)?
A: Its MIC is 32 mg/L.

Q: What about the MIC ([12]; BB2000) of the same compound?
A: Its MIC is 64 mg/L.

Q: What about the MIC ([13]; Yersinia pseudotuberculosis ATCC 6904) of the same compound?
A: The MIC was 16 mg/L.

Q: What about the MIC ([14]; DSM 17609) of the same compound?
A: Its MIC is 500 mg/L.

Q: And the MIC [15]?
A: The MIC was greater than 1000 mg/L.

Q: And the MIC ([23]; HG003)?
A: Its MIC is greater than 1000 mg/L.

Q: What about the MIC [24]; 168 of the same compound?
A: Its MIC is greater than 1000 mg/L.

From patent US20240002442A1, “CYCLIC PEPTIDES WITH ANTIMICROBIAL PROPERTIES” (priority 2020, published 2024)
